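These data come from cells grown in 96-well plates and exposed to compound for 48 hours at five concentrations. TGI is the concentration that stops growth completely.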
Assays:
Assay in all cases: DTP human tumour cell line panel, 48 h
HL-60(TB) leukemia = test system: HL-60(TB) leukemia
SK-MEL-28 melanoma = test system: SK-MEL-28 melanoma
IGROV1 ovarian = test system: IGROV1 ovarian
NCI-H23 lung = test system: NCI-H23 lung
SK-OV-3 ovarian = test system: SK-OV-3 ovarian
MOLT-4 leukemia = test system: MOLT-4 leukemia
HT29 colon = test system: HT29 colon
NCI-H460 lung = test system: NCI-H460 lung
SK-MEL-5 melanoma = test system: SK-MEL-5 melanoma
HCT-116 colon = test system: HCT-116 colon
NCI-H226 lung = test system: NCI-H226 lung
MCF7 breast = test system: MCF7 breast
K-562 leukemia = test system: K-562 leukemia
TK-10 renal = test system: TK-10 renal
MDA-MB-231 breast = test system: MDA-MB-231 breast
DU-145 prostate = test system: DU-145 prostate
HCC-2998 colon = test system: HCC-2998 colon
BT-549 breast = test system: BT-549 breast
UACC-62 melanoma = test system: UACC-62 melanoma
ACHN renal = test system: ACHN renal
SN12C renal = test system: SN12C renal
RXF 393 renal = test system: RXF 393 renal
SF-268 CNS = test system: SF-268 CNS
UACC-257 melanoma = test system: UACC-257 melanoma
SF-295 CNS = test system: SF-295 CNS
SR leukemia = test system: SR leukemia
NCI-H522 lung = test system: NCI-H522 lung
UO-31 renal = test system: UO-31 renal
EKVX NSCLC = test system: EKVX NSCLC
MALME-3M melanoma = test system: MALME-3M melanoma
PC-3 prostate = test system: PC-3 prostate
SW-620 colon = test system: SW-620 colon
HOP-62 NSCLC = test system: HOP-62 NSCLC
OVCAR-4 ovarian = test system: OVCAR-4 ovarian
SK-MEL-2 melanoma = test system: SK-MEL-2 melanoma
OVCAR-5 ovarian = test system: OVCAR-5 ovarian
OVCAR-3 ovarian = test system: OVCAR-3 ovarian
HCT-15 colon = test system: HCT-15 colon
786-0 renal = test system: 786-0 renal
LOX IMVI melanoma = test system: LOX IMVI melanoma
COLO 205 colon = test system: COLO 205 colon
RPMI-8226 leukemia = test system: RPMI-8226 leukemia
MDA-MB-435 = test system: MDA-MB-435
U251 CNS = test system: U251 CNS
KM12 colon = test system: KM12 colon
CCRF-CEM leukemia = test system: CCRF-CEM leukemia
HOP-92 NSCLC = test system: HOP-92 NSCLC
SNB-19 CNS = test system: SNB-19 CNS
MDA-N = test system: MDA-N
A498 renal = test system: A498 renal
CAKI-1 renal = test system: CAKI-1 renal
OVCAR-8 ovarian = test system: OVCAR-8 ovarian
M14 melanoma = test system: M14 melanoma
SF-539 CNS = test system: SF-539 CNS
A549 NSCLC = test system: A549 NSCLC
T-47D breast = test system: T-47D breast
NCI/ADR-RES ovarian = test system: NCI/ADR-RES ovarian
SNB-75 CNS = test system: SNB-75 CNS

Measured: TGI

[N-]=[N+]=CC(=O)OC1CCOCC1
not listed: OVCAR-8 ovarian | M14 melanoma | SF-539 CNS | A549 NSCLC | T-47D breast | NCI/ADR-RES ovarian | SNB-75 CNS
> 100 µM: all other assays above

C[Si](C)(C)CNC(=O)OCc1ccccc1
72.4 µM: T-47D breast
not listed: MOLT-4 leukemia | RXF 393 renal | MALME-3M melanoma
> 100 µM: all other assays above

From PubChem BioAssay (NCI)
